Assay results from patent US20130296346A1, “DIPHENYL-AMINE DERIVATIVES: USES, PROCESS OF SYNTHESIS AND PHARMACEUTICAL COMPOSITIONS” (Faes Farma, S.A., priority 2010, published 2013).

What was measured:
[1] = Cytotoxicity for human non-tumoral cells, XTT; type: cell-based; settings: Fibroblasts
Protocol: (§1) The cytotoxicity of the compounds for human non-tumoral cells was studied in fibroblasts, HUVEC cells and resting PBLs (Peripheral Blood lymphocytes).
(§2) Distinct amounts of exponentially growing cells were seeded in 96-well flat-bottomed microtiter plates in a final volume of 100 μl were seeded in 96-well flat-bottomed microtiter plates, and incubated at 37° C. in a humidified atmosphere of 5% CO2/95% air for 24 h to allow the cells attach to the plates. Then, cells were incubated with different concentrations of the assayed compound at 37° C. under the 5% CO2/95% air atmosphere for 72 h. Cell proliferation was quantified using the XTT cell proliferation kit (Roche Molecular Biochemicals, Mannheim, Germany) following the manufacturer's instructions. Briefly, a freshly prepared mixture solution (50 μl) of XTT labelling reagent and PMS (N-methyldibenzopyrazine methyl sulfate) electron coupling reagent was added to each well. The resulting mixtures were further incubated for 4 h in a humidified atmosphere (37° C., 5% CO2), and the absorbance of the formazan product generated was measured with a microtiter plate reader at a test wavelength of 490 nm and a reference wavelength of 655 nm. The IC50 (50% inhibitory concentration) was then calculated as the drug concentration causing a 50% inhibition of cell proliferation. Data are shown as mean values of four independent experiments each performed in triplicate.

[2] = Cytotoxicity for human non-tumoral cells, XTT; type: cell-based; settings: HUVEC cells (primary, from human cords)
Protocol: as §1
HUVEC cells were obtained by treating human cords with collagenase type I, […] in Hank's medium incubating 20 minutes at 37° C. Cells were collected afterwards and cultivated in medium M199 with supplements of 20% FBS, 1% P/S and 25 mg/500 ml of medium ECGF, Cells were grown on a 0.2% gelatin matrix.
as §2

HCT-116 and SW620 cells = assay: Expression of apoptosis-related proteins by immunoblotting; type: cell-based, human; settings: colon carcinoma cells, 10 μM
Protocol: (§3) Induction of apoptosis in human colon cancer HCT-116 cell line by Compound 3 (FIG. 8A). The induction of apoptosis was quantitated as the percentage of cells in the sub-G1 region (hypodiplody) of cell cycle analysis. Briefly, cells (5×10^5) were centrifuged and fixed overnight in 70% ethanol at 4° C. Cells were washed 3 times with PBS, incubated for 1 h with 1 mg/ml RNaseA and 20 μg/ml propidium iodide at room temperature, and then analyzed for cell cycle with a Becton Dickinson FACSCalibur flow cytometer (San Jose, Calif.). HCT-116 cells were incubated for the indicated times with 10 μM Compound 3, and apoptosis was then quantitated as percentage of cells in the sub-G1 region in cell cycle analysis by flow cytometry. The position of the sub-G1 peak (hypodiploidy), integrated by apoptotic cells, as well as the G0/G1 and G2/M peaks are indicated by arrows. Untreated control cells were run in parallel. The percentage of cells with a DNA content less than G1 (sub-G1) is indicated in each histogram. The experiment shown is representative of three performed Expression of different apoptosis-related proteins during Compound 3 treatment (FIG. 8B), HCT-116 and SW620 cells were treated with 10 μM Compound 3 for the indicated times and analyzed by immunoblotting with specific antibodies for the indicated proteins. The migration positions of the different proteins are indicated. β-actin was used as a loading control. Data shown are representative of three experiments performed. About 10^7 cells were pelleted by centrifugation, washed with PBS, and lysed. […]

resting human PBLs = assay: Apoptosis of resting human PBLs; type: cell-based
Protocol: To isolate normal peripheral blood lymphocytes (PBLs), mononuclear cells were obtained from fresh human peripheral blood from healthy volunteers by centrifugation on Ficoll-Hypaque density gradients, washed with phosphate-buffered saline (PBS), and resuspended in RPMI-1640 medium containing 10% (v/v) heat-inactivated FBS, 2 mM L-glutamine, 100 U/ml penicillin, and 100 μg/ml streptomycin as described (Cabaner et al. Br. J. Pharmacol 127:813-825.1999). Monocytes were depleted by culture dish adherence after overnight incubation. Nonadherent cells (lymphocytes) were washed with PBS and collected. PBL preparations were typically 70-75% CD3^+, 24-29% CD 19^+, and less than 0.4% CD 14^+.

SW620 = assay: Apoptosis, sub-G1 peak and caspase activation; type: cell-based, human; settings: SW620, 10 μM
Protocol: as §3, with “proteins.” for “proteins. The migration positions of the different proteins are indicated. β-actin was used as a loading control. Data shown are representative of three experiments performed. About 10^7 cells were pelleted by centrifugation, washed with PBS, and lysed.”

HCT-116 = assay: Apoptosis, sub-G1 peak and caspase activation; type: cell-based, human; settings: HCT-116, 10 μM
Protocol: as §3, with “proteins.” for “proteins. The migration positions of the different proteins are indicated. β-actin was used as a loading control. Data shown are representative of three experiments performed. About 10^7 cells were pelleted by centrifugation, washed with PBS, and lysed.”

For Fc1ccc(CNCCCC=C(c2ccccc2)c2ccccc2)cc1 [Compound 3, (5,5-diphenyl-pent-4-enyl)-(4-fluoro-benzyl)-amine hydrocloride], the IC50 at 72 h [1] was 19 µM, the IC50 at 72 h [2] was 16 µM and the caspase-9 (HCT-116 and SW620 cells) was “induction”. The “expression of Mcl-1S” value (HCT-116 and SW620 cells) was “induced the expression”, the “protein level of p53” value (HCT-116 and SW620 cells) was “increased” and the “% Apoptosis PBLs” value (resting human PBLs; 10^−4 M) was 7.5%. The “% Apoptosis PBLs” value (resting human PBLs; 10^−5 M) was 1.3%, the “effect on PBLs” value (resting human PBLs; even at 10^−4 M) was “hardly affect PBLs” and the “apoptosis (sub-G1 peak, caspase activation)” value (SW620) was “induces apoptosis”. The “apoptosis (sub-G1 peak, caspase activation)” value (HCT-116) was “induces apoptosis”.
